Assay results: ChEMBL document CHEMBL1123590, “Dopamine agonists related to 3-allyl-6-chloro-2,3,4,5-tetrahydro-1-(4-hydroxyphenyl)-1H-3-benzaz epi ne-7, 8-diol. 6-Position modifications” (J Med Chem, 1987)

What was measured:
D(1A) dopamine receptor = D(1A) dopamine receptor (Rattus norvegicus, UniProt P18901); assay: Dopamine agonist (Dopamine receptor D1) activity was measured as increase in cAMP formation relative to maximum increase in dopamine-sensitive adenylate cyclase; format: functional
Chain of D(1A) dopamine receptor (P18901 whole entry): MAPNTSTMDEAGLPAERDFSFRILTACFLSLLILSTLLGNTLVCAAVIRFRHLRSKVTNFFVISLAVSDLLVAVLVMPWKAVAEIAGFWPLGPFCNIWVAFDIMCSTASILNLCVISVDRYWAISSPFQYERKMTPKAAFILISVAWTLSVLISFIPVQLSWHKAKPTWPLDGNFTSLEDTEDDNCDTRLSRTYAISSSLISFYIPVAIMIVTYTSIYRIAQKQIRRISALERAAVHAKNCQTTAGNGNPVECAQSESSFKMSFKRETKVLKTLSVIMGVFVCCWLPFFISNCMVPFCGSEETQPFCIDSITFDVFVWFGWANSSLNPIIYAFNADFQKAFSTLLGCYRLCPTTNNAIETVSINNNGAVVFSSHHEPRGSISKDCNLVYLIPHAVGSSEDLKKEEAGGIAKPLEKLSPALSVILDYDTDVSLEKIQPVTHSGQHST

Rattus norvegicus = species: Rattus norvegicus; assay: Maximum response of adenylate cyclase to that of maximum response caused by dopamine was measured; format: functional; set-up: unit not given here
D(2) dopamine receptor [1] = target: T1, D(2) dopamine receptor (Homo sapiens, UniProt P14416); assay: Dopamine receptor D2 agonist activity was determined for inhibition of the constrictor response to electrical stimulation in an isolated perfused rabbit ear artery preparation; format: functional, Oryctolagus cuniculus; conditions: target entry is the homologue from another species
T1 sequence (P14416 whole entry, the tested form may be a part): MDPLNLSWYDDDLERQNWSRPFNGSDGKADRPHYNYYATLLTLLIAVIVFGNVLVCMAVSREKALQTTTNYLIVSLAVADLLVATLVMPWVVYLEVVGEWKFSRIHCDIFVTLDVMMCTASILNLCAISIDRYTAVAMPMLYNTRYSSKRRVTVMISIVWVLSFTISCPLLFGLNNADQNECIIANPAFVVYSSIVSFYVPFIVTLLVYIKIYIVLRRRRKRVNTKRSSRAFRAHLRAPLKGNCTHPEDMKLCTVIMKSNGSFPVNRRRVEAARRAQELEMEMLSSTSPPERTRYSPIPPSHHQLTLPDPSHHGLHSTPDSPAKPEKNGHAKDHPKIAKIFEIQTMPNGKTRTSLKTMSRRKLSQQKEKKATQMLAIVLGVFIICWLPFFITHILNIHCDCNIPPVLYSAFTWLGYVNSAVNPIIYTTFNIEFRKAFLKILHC

D(2) dopamine receptor [2] = target: T1, D(2) dopamine receptor; assay: Dopamine receptor D2 agonist activity was determined for inhibition of release of NE in an isolated perfused rabbit ear artery preparation

SMILES	EC50 (D(1A) dopamine receptor) [nM]	Max response (Rattus norvegicus)	EC50 (D(2) dopamine receptor [1]) [nM]	EC50 (D(2) dopamine receptor [2]) [nM]
C=CCN1CCc2c(cc(O)c(O)c2F)C(c2ccc(O)cc2)C1.CS(=O)(=O)O (stereo unspecified)	100	89	137	–
C=CCN1CCc2c(cc(O)c(O)c2Cl)C(c2ccc(O)cc2)C1.CS(=O)(=O)O (stereo unspecified)	15	80	–	122
C=CCN1CCc2c(cc(O)c(O)c2Br)C(c2ccc(O)cc2)C1.CS(=O)(=O)O (stereo unspecified)	50	78	174	–
C=CCN1CCc2c(cc(O)c(O)c2C)C(c2ccc(O)cc2)C1.Cl (stereo unspecified)	400	69	> 10000	–
Br.C=CCN1CCc2cc(O)c(O)cc2C(c2ccc(O)cc2)C1 (stereo unspecified)	400	35	253	–
C=CCN1CCc2cc(O)c(O)cc2C(c2ccccc2)C1.Cl (stereo unspecified)	–	45	–	–
